# Where no end group is shown, it is not given here. The star is where a group is joined. Palmitoyl = CCCCCCCCCCCCCCCC(=O)*; Myristoyl = CCCCCCCCCCCCCC(=O)*
# Assays:
# keratinocytes [1] = test: Keratinocyte proliferation in vitro (PCNA); assay type: cell-based, Balb/c mice; conditions: concentration not given
# Method: Primary murine keratinocytes from 2 days old Balb/c mice were grown for 5 days to reach full confluence in 0.05 mM Ca^2+ MEM medium. HO/02/10 treatment (10^−6M and 10^−5M) was applied 6 hours prior to induction of differentiation. Cells were harvested, run on SDS PAGE gel and immunoblotted using anti-PCNA antibodies. In addition, C57Black mice, 8-10 weeks of age were subjected to full thickness wounding in the upper back area to induce epidermis remodeling and differentiation. Following the wounding, mice were treated daily with HO/02/10 (ranged 40-4000 mg/kg/day) for 7 days. At the termination point, mice were euthanized and upper back skin samples were fixed in 4% paraformaldehyde solution, following paraffin embedding and slide preparation. Skin samples were then subjected to immunohistochemical staining utilizing PCNA antibody. (n=18).
# (§1) FIGS. 7 and 8 presents a summary of expression data in keratinocytes utilizing various peptide PKCα inhibitors: MPDY-1 (SEQ ID NO: 21) as well as data for the peptide PKCα inhibitors AIP-1 (SEQ ID NO: 3), AIP-2 (SEQ ID NO: 20), AWOT-1 (SEQ ID NO: 5) and PPDY-1 (SEQ ID NO: 22). […] FIG. 8 presents a summary of expression data in keratinocytes for various peptide PKCα inhibitors.
# keratinocytes [2] = test: Keratinocyte migration; assay type: cell-based; parameters: concentration or dose not given beside the values
# keratinocytes [3] = test: Keratinocyte differentiation markers (Filaggrin, Loricrin, Keratin 1); assay type: cell-based, C57BL/6J mice; conditions: concentration: EPIP1 and DAP1 1 μg/ml, 10 μg/ml, EPIP2 10 μg/ml
# Method: Keratinocytes derived from C57BL/6J mice were incubated in medium containing Ca^2+ to induce keratinocytes differentiation. Cells were then incubated in the presence of […] (1 μg/ml). Cells were harvested, run on SDS PAGE gel and immunoblotted using anti-Filaggrin (Fil), anti Loricrin (Lor) and anti-Keratin 1 (K1) antibody.
# as §1
# keratinocytes [4] = test: Cytokine secretion in keratinocytes stimulated by LPS, TNFα or IL-17 (ELISA); assay type: cell-based, BALB/C mice; conditions: for cytokine secretion from LPS and TNFα activated keratinocytes: FIGS. 19 to 23; for cytokine secretion from IL-17A activated keratinocytes: FIGS. 24 to 27; for cytokine secretion in keratinocytes: stimulated by LPS, TNFα, or IL-17
# Method: To determine their effects, keratinocytes were derived from newborn BALB/C mice skin. The cells were incubated for 5 days in 24 wells plate. Cells were then incubated with PBS−/− as control or stimulated by LPS, TNFα, or IL-17. PKCα inhibitors were added as indicated. Medium containing secreted cytokines was collected after 48 hr and analyzed using ELISA. FIG. 40 is a tabular summary of cytokine secretion.
# PKCδactivators were also shown to have an anti-inflammatory effect on keratinocytes and splenocytes. Keratinocytes were derived from newborn BALB/C mice skin. The cells were incubated for 5 days in 24 wells plate. Cells were then incubated with PBS−/− as control or stimulated by LPS or TNFα. The PKCδ inhibitor DAP-1 (SEQ ID NO: 16) was added. Medium containing secreted cytokines was collected after 48 hr and analyzed using ELISA. FIG. 35 is a tabular summary showing cytokine secretion in splenocytes stimulated with LPS. […] Cytokine secretion in keratinocytes stimulated by TNFα: following stimulation with 35 ng/ml TNFα. And treatment with 10 μg/ml of DAP-1, the cytokine levels of IL-1α, G-CSF, MIP-2 and KC were reduced by 95%, 70%, 20% and 30# respectively.
# PKCε inhibitors were also shown to have an anti-inflammatory effect on keratinocytes. Keratinocytes were derived from newborn BALB/C mice skin. The cells were incubated for 5 days in 24 wells plate. Cells were then incubated with PBS−/− as control or stimulated by LPS or TNFα. The PKCεinhibitors EPIP-1 (SEQ ID NO: 20), EPIP-2 (SEQ ID NO: 21), or EPIP-4 (SEQ ID NO: 23) were added. Medium containing secreted cytokines was collected after 48 hr and analyzed using ELISA. FIGS. 36-39 show the results for secretion of specific cytokines while Table 8 summarizes cytokine secretion for the various PKCε inhibitors: […]
# splenocytes = test: Cytokine secretion in splenocytes stimulated with LPS or TNFα (ELISA); assay type: cell-based, B6 mice
# Description: Inhibitory effect on activated splenocytes: Splenocytes were derived from B6 mice. […] Medium containing secreted cytokines was collected after 48 hr and analyzed using ELISA.
# [5] = LPS 1 [μg/ml], peptide [10 μg/ml], 48 hr
# [6] = TNF [35 ng/ml], peptide [10 μg/ml], 48 hr
# [7] = keratinocytes, LPS (1 μg/ml) (EPIP4: printed 1 mg/ml), peptide concentration not given
# [8] = keratinocytes, TNFa stim (35 ng/ml), 1 μg/ml of peptide (given for EPIP1, EPIP2, not for EPIP4), reduction printed with or without minus sign
# [9] = Splenocytes, Induction: LPS (1 μg/ml) (given for DAP1 only), peptide (10 μg/ml)
# [10] = Keratinocytes, Induction: TNFα (35 ng/ml), peptide (10 μg/ml)
# [11] = TNFα 25 ng/ml, peptide 1 μg/ml, 48 hr
# [12] = TNFα 25 ng/ml, peptide 10 μg/ml, 48 hr
# [13] = LPS 1 [μg/ml], peptide [1 g/ml], 48 hr
# [14] = TNF [35 ng/ml], peptide [1 g/ml], 48 hr
# [15] = keratinocytes, 35 ng/ml TNFα, 10 μg/ml of DAP-1
# [16] = keratinocytes, upon LPS and TNFa activation
substance,measurement,setting,value
EAVSLKPT [EPIP-1],Proliferation markers (PCNA),keratinocytes [1],Induces
same,"Migration, Induces",keratinocytes [2],(200%)
same,Differentiation markers: granular differentiation,keratinocytes [3],Reduces granular
same,Differentiation markers: spainous differentiation,keratinocytes [3],Reduces granular
same,G-CSF secretion (change),keratinocytes [4]; [5],−70%
same,IL-6 secretion (change),keratinocytes [4]; [5],−55%
same,IP-10 secretion (change),keratinocytes [4]; [5],−60%
same,KC secretion (change),keratinocytes [4]; [5],−100%
same,G-CSF secretion (change),keratinocytes [4]; [6],−85%
same,IL-6 secretion (change),keratinocytes [4]; [6],−95%
same,IP-10 secretion (change),keratinocytes [4]; [6],(−45%)
same,G-CSF secretion (change),keratinocytes [4]; [7],−70%
same,IL-6 secretion (change),keratinocytes [4]; [7],−55%
same,IP-10 secretion (change),keratinocytes [4]; [7],−60%
same,KC secretion (change),keratinocytes [4]; [7],−100%
same,Reduces Chemokines IP 10,keratinocytes [4]; [8],Chemokines IP 10 (45%)
same,Reduces proinflammatory cytokines IL-6,keratinocytes [4]; [8],95%
same,Reduces systemic cytokines G-SCF,keratinocytes [4]; [8],−85%
HFEDWIDHFEDWID [DAP-3],Proliferation markers (PCNA),keratinocytes [1],induces
same,Reduces Chemokines: MIP2,"splenocytes; Splenocytes, DAP3 (10 μg/ml)",MIP2 (25%)
same,reduces proinflamatory cytokine: IL-1α,splenocytes; [9],"IL-1α (45%),"
same,reduces systemic cytokine: G-SCF,splenocytes; [9],"G-SCF (25%),"
same,"Migration, Induces",keratinocytes [2],(200%)
same,Differentiation markers: granular differentiation,keratinocytes [3],induces
same,Reduces Chemokines: KC,keratinocytes [4]; [10],"KC (25%),"
same,Reduces proinflamatory cytokine: IL-1a,keratinocytes [4]; [10],(50%)
same,Reduces proinflamatory cytokine: IL-6,keratinocytes [4]; [10],(45%) and IL-1a
same,Reduces systemic cytokine G-SCF,keratinocytes [4]; [10],"SCF (25%),"
same,Reduces systemic cytokine GM-CSF,keratinocytes [4]; [10],"SCF (25%),"
Myristoyl-Phe-Ala-Arg-Lys-Gly-Ala-Leu (Myristoyl-FARKGAL) [AIP-2],cytokine secretion from LPS and TNFα activated keratinocytes,keratinocytes [4],decrease
same,cytokine secretion from IL-17A activated keratinocytes,keratinocytes [4],decrease
same,cytokine secretion in keratinocytes,keratinocytes [4]; 48 hr,effective in decreasing cytokine secretion
LEPEAAAAAAGK [EPIP-4],Proliferation markers (PCNA),keratinocytes [1],Induces
same,G-CSF (% reduction in secretion),splenocytes; [11],45%
same,IFN-γ (% reduction in secretion),splenocytes; [11],25%
same,IL-1a (% reduction in secretion),splenocytes; [11],10%
same,IL-6 (% reduction in secretion),splenocytes; [11],15%
same,IL-10 (% reduction in secretion),splenocytes; [11],30%
same,IL-17 (% reduction in secretion),splenocytes; [11],85%
same,G-CSF (% reduction in secretion),splenocytes; [12],20%
same,IFN-γ (% reduction in secretion),splenocytes; [12],55%
same,IL-10 (% reduction in secretion),splenocytes; [12],10%
same,IL-17 (% reduction in secretion),splenocytes; [12],90%
same,IP-10 (% reduction in secretion),splenocytes; [12],15%
same,"Migration, Induces",keratinocytes [2],(200%)
same,Differentiation markers: granular differentiation,keratinocytes [3],No influence
same,Differentiation markers: spainous differentiation,keratinocytes [3],reduces spainous
same,G-CSF secretion (change),keratinocytes [4]; [13],−75%
same,IL-6 secretion (change),keratinocytes [4]; [13],−55%
same,IP-10 secretion (change),keratinocytes [4]; [13],−60%
same,KC secretion (change),keratinocytes [4]; [13],−100%
same,G-CSF secretion (change),keratinocytes [4]; [14],"IL-6 (−100%), G-CSF (−100%), IP-10"
same,IL-6 secretion (change),keratinocytes [4]; [14],"IL-6 (−100%), G-CSF (−100%), IP-10"
same,IP-10 secretion (change),keratinocytes [4]; [14],(−80%)
same,IL-6 secretion (change),keratinocytes [4]; [7],"Reduces proinflammatory IL-6 (−55%),"
same,IP-10 secretion (change),keratinocytes [4]; [7],−60%
same,KC secretion (change),keratinocytes [4]; [7],−100%
same,Reduces Chemokines IP 10,keratinocytes [4]; [8],Chemokines IP 10 (−80%)
same,Reduces proinflammatory cytokines IL-6,keratinocytes [4]; [8],"proinflammatory cytokines IL-6(−100%),"
Myristoyl-Thr-Arg-Lys-Arg-Gln-Arg-Ala-Met-Arg-Arg-Arg-Val-His-Gln-Ile-Asn-Gly (Myristoyl-TRKRQRAMRRRVHQING) [MPE-1],G-CSF (% reduction in secretion),splenocytes; [11],40%
same,IL-6 (% reduction in secretion),splenocytes; [11],25%
same,IL-17 (% reduction in secretion),splenocytes; [11],90%
same,G-CSF (% reduction in secretion),splenocytes; [12],15%
same,IL-17 (% reduction in secretion),splenocytes; [12],90%
MRAAEAAAAEPM [DAP-1],Proliferation markers (PCNA),keratinocytes [1],Reduces
same,Reduces Chemokine: KC,splenocytes; [9],"KC (32%), as"
same,reduces proinflamatory cytokine: IL-1α,splenocytes; [9],"IL-1α (45%),"
same,reduces systemic cytokine: G-SCF,splenocytes; [9],"(40%),"
same,induces antiinflamatory cytokine: IL 10,"splenocytes; Splenocytes, Induction: LPS (1 μg/ml), DAP1 (1 μg/ml)",IL 10 (200%)
same,Reduces TNFa expression,"splenocytes; Splenocytes, Induction: LPS (1 μg/ml), DAP1 (10 μg/ml)",expression (28%).
same,inflammatory cytokine secretion in splenocytes,splenocytes; stimulated with LPS,significantly decease
same,"Migration, Induces",keratinocytes [2],(200%)
same,Differentiation markers: granular differentiation,keratinocytes [3],induces
same,Reduces Chemokines: KC,keratinocytes [4]; [10],"KC (32%), MIP2"
same,Reduces Chemokines: MIP2,keratinocytes [4]; [10],(30%)
same,Reduces proinflamatory cytokine: IL-1a,keratinocytes [4]; [10],(40%)
same,Reduces proinflamatory cytokine: IL-6,keratinocytes [4]; [10],(20%) and IL-1a
same,Reduces systemic cytokine GM-CSF,keratinocytes [4]; [10],GM-CSF (50%)
same,cytokine level of G-CSF reduced by,keratinocytes [4]; [15],70%
same,cytokine level of IL-1α reduced by,keratinocytes [4]; [15],95%
same,cytokine level of KC reduced by,keratinocytes [4]; [15],30
same,cytokine level of MIP-2 reduced by,keratinocytes [4]; [15],20%
same,inflammatory cytokine secretion in keratinocytes,keratinocytes [4]; stimulated by LPS or TNFα,significantly decease
Pro-Ala-Trp-His-Asp (PAWHD) [EPIP-3],Proliferation markers (PCNA),keratinocytes [1],Induces
same,"Migration, Induces",keratinocytes [2],(200%)
same,Differentiation markers: granular differentiation,keratinocytes [3],Reduces granular
same,"cytokine secretion, comparison with MPDY-1","keratinocytes [4]; keratinocytes, IL-17 activation",IL-17: similar effect to MPDY-1
same,"pro-inflammatory cytokines, chemokines (effect)",keratinocytes [4]; [16],"Reduces pro-inflammatory cytokines,"
same,"pro-inflammatory cytokines, chemokines, comparison with MPDY-1",keratinocytes [4]; [16],"chemokines, better than MPDY-1 upon"
TLNPQWES [AIP-1],cytokine secretion in keratinocytes,keratinocytes [4]; 48 hr,effective in decreasing cytokine secretion
Palmitoyl-Phe-Ala-Arg-Lys-Gly-Ala-Leu-Arg-Gln (Palmitoyl-FARKGALRQ) [PPDY-1],cytokine secretion in keratinocytes,keratinocytes [4]; 48 hr,effective in decreasing cytokine secretion
FARKGALRQ [AWOT],cytokine secretion from LPS and TNFα activated keratinocytes,keratinocytes [4],decrease
same,cytokine secretion from IL-17A activated keratinocytes,keratinocytes [4],decrease
same,cytokine secretion in keratinocytes,keratinocytes [4]; 48 hr,effective in decreasing cytokine secretion
